US20110152207A1, “USE OF VITAMIN D GLYCOSIDES AND SULFATES FOR TREATMENT OF DISEASE” (priority 2009, published 2011)
Marks after values point to notes of the source that are not given here.

What was measured:
[1] = Hypercalcemic effect: plasma calcium in rats under continuous subcutaneous infusion; format: in vivo; settings: for Plasma Calcium Mean ± SD: 12th day, in mg/dL (unit assumed); for Significantly greater than control? Duncan's Multiple Range Test: plasma calcium
Protocol: The pumps were filled aseptically with the appropriate dose of drug dissolved in propylene glycol. The pumps were surgically implanted under the skin on the dorsal neck and shoulder area aseptically. On the 12th day of infusion, rats were deeply anesthetized (isofluorane inhalation) and blood was collected by cardiac puncture for plasma calcium determination. The plasma calcium levels were determined by standard methods.

[2] = Plasma 1,25-D3 concentration in mice after a single oral dose (RIA)
[3] = test system: LNCaP cells; test: LNCaP cell proliferation (CELLTITER BLUE); format: cell-based, human; settings: six days, control = 100
Protocol: LNCaP cells (ATCC # CRL-1740) are malignant prostate cancer cells originally obtained from a lymph node of a person whose prostatic cancer had metastasized to the lymph node. LNCaP cells were grown in tissue culture using RPMI-1640 media with 10% fetal bovine serum. Wells of two 48-well tissue culture plates were seeded with 5000 LNCaP cells/well. […] Half the media was replaced with fresh media with treatments on the third day of the treatment period. By day 6 of treatment, wells of control untreated cells were approximately 60% confluent. The live cell numbers in each well at the end of treatment were assessed using the “CELLTITER BLUE”-brand assay kit (Promega Corp., Madison, Wis.). The assay is based on the ability of living cells to convert a redox dye (resazurin) into a fluorescent end product (resorufin).

[4] = test system: DSS-induced inflammation of the lower colon; test: Dextran sodium sulfate (DSS) mouse model of IBD; format: in vivo; settings: DSS mice; for Fecal Blood Score: scale 0-3
Excerpt: In this example, β-gluc-1,25-D3 compounds, alone or in combination with 25-β-glucuronide-25-hydroxyvitamin D3 compounds (hereinafter β-gluc-25-D3) were incorporated into the diet of mice and compared to equimolar 1,25-D3 with respect to therapeutic effects on IBD and induction of calcemia. A standard mouse model of IBD comprising administering dextran sodium sulfate (DSS) to induce inflammation of the lower colon was used to study these effects. Vitamin D treatments were first initiated for 4 days. After 4 days, mice were fed DSS-water for 7 days, allowed one day to recover, and sacrificed. Colon length, plasma calcium, fecal blood score, and body weight were assayed. Colon length is a standard marker of intestinal inflammation in the literature, with shortened colon length being an indicator of inflammation. A 1-cm section of the mid-colon was removed, fixed in formalin, and stained with hematoxylin & eosin for microscopic histopathologic evaluation by a veterinary pathologist blinded to the treatments. Each tissue section received a score from 0 to 4 reflecting absence of lesion to severe, extensive lesion for each of three criteria: (1) the degree of erosion/ulceration of colon mucosa; (2) the degree of infiltration of the tissues by inflammatory cells; and (3) the degree of submucosal edema. The sum of the score of each of these criteria constitutes the histopathological score for the tissue with a zero score representing normal tissue based on all criteria, and the worst possible outcome being a score of 12.

[5] = test system: 4T1 tumor cells; test: 4T1 mammary tumor growth in BALB/c mice; format: in vivo; settings: 280 ng/day s.c. daily, eight days
Protocol: 4T1 tumor cells, originally isolated from a BALB/cfC3H mouse mammary gland, were obtained from American Tissue Culture Collection (Manassas, Va.). The tumor growth and metastatic spread of 4T1 cells in BALB/c mice very closely mimic human breast cancer. This syngeneic tumor graft is an animal model for stage 1V human breast cancer (Pulaski et al. Cancer Res. 1998, 58:1486-1493). The cells were grown in RPMI-1640 media supplemented with 10% fetal bovine serum. When cell growth reached about 70% confluency, the cells were lifted from the flasks with standard removing medium and rinsed with 0.25% trypsin, 0.53-mM EDTA solution (trypsin-EDTA solution). This solution was removed and an additional 1 to 2 ml of trypsin-EDTA solution was added. The flask was allowed to sit at 37.0° C. until the cells detached. Fresh culture medium was added, and the cells were aspirated for enumeration using a hemocytometer. RPMI-1640 and Matrigel (BD Biosciences, Bedford, Mass.) solutions were prepared and maintained at 4° C. to keep the Matrigel liquid. […] Sixteen days after implantation of the cells, tumors approximately 0.5-0.7 cm in diameter (as measured with calipers) formed under the skin of many of the mice. […]

C=C1/C(=C\C=C2/CCC[C@]3(C)[C@@H]([C@H](C)CCCC(C)(C)O[C@@H]4O[C@H](C(=O)O)[C@@H](O)[C@H](O)[C@H]4O)CC[C@@H]23)C[C@@H](O)C[C@@H]1O [β-gluc-1,25-D3, 25-β-glucuronide-1,25-dihydroxyvitamin D3]
Plasma Calcium Mean ± SD ([1]; 14 ng/day continuous s.c. infusion): 10.63 ± 0.20
increase in plasma calcium ([1]; 70 ng/day): no increase in plasma calcium
Plasma Calcium Mean ± SD ([1]; 70 ng/day continuous s.c. infusion): 10.71 ± 0.15
Plasma Calcium Mean ± SD ([1]; 250 ng/day continuous s.c. infusion): 11.02 ± 0.49
Plasma Calcium Mean ± SD ([1]; 350 ng/day continuous s.c. infusion): 11.00 ± 0.25
symptoms of hypercalcemia (feed intake) ([1]; 500 ng/day): no evidence of a reduction in feed intake or other symptoms
Plasma Calcium Mean ± SD ([1]; 500 ng/day continuous s.c. infusion): 11.33 ± 0.38
lowest dose inducing a statistically significant increase in plasma calcium levels ([1]; continuous s.c. infusion): 250 ng/day
Significantly greater than control? Duncan's Multiple Range Test ([1]; 250 ng/day): Yes
Significantly greater than control? Duncan's Multiple Range Test ([1]; 350 ng/day): Yes
Significantly greater than control? Duncan's Multiple Range Test ([1]; 500 ng/day): Yes
hypercalcemic effect, fold less than the native hormone ([1]; versus 1,25-D3): at least 4 fold
plasma 1,25-D3 concentration ([2]; 6 pmol per os, 6 hr time point): not significantly increased
peak plasma 1,25-D3, fold over control mouse plasma 1,25-D3 ([2]; 24 pmol per os): 3.5 fold
peak plasma concentration of 1,25-D3 ([2]; 24 pmol per os): 325 pg/mL
time of peak plasma 1,25-D3 concentration ([2]; 24 pmol per os): approximately 3 hr
plasma 1,25-D3 concentration ([2]; 24 pmol per os, 24 hrs after treatment): slightly below the concentration observed in control animals
levels of 1,25-D3 in the blood, 1,25-D3 versus β-gluc-1,25-D3 ([2]; 6 hrs following treatment, each dose 6-48 pmol): comparable at each concentration
Proliferation index (Mean ± SEM) ([3]; 20 nM): 95.4 ± 2.4
Proliferation index (Mean ± SEM) ([3]; 100 nM): 73.1 ± 9.5
Histopathology score (0-12) ([4]; 14 ng/day): 6.66 ± 0.53^c
Colon Length ([4]; 14 ng/day in diet): 5.78 ± 0.09 cm
Final Body Weight ([4]; 14 ng/day in diet): 21.91 ± 0.49 g
Fecal Blood Score ([4]; 14 ng/day): 0.55 ± 0.26
Histopathology score (0-12) ([4]; 70 ng/day): 6.33 ± 0.74^c
Colon Length ([4]; 70 ng/day in diet): 5.41 ± 0.15 cm
Final Body Weight ([4]; 70 ng/day in diet): 21.00 ± 0.68 g
Fecal Blood Score ([4]; 70 ng/day): 0.22 ± 0.08^c
Histopathology score (0-12) ([4]; 350 ng/day): 8.33 ± 0.64
Colon Length ([4]; 350 ng/day in diet): 4.72 ± 0.15 cm
Final Body Weight ([4]; 350 ng/day in diet): 19.62 ± 0.69 g
Fecal Blood Score ([4]; 350 ng/day): 0.88 ± 0.43
reducing inflammation ([4]; alone at 70 ng/day): numerically better than 1,25-D3
tumor weight mean±SEM ([5]; BALB/c mice): 2.01 ± 0.36 g
effect on the growth of 4T1 tumor cells ([5]; P=0.034): significant anti-proliferative effect
